According to ChEMBL document CHEMBL1201862, “PubChem BioAssay data set” (2004):
Activity calls are given as the source filed them.

Legend:
[1] = molecular target: T1, Glycogen synthase kinase-3 beta (Homo sapiens, UniProt P49841); experiment: GSK3beta kinase inhibitors, dose response, biochemical, microfluidics, dry powder samples, set 2 (AID 623989); format: functional
[2] = molecular target: T2, Cyclin-dependent kinase 5/CDK5 activator 1 (Homo sapiens, UniProt Q00535); experiment: CDK5-p25 kinase inhibition, dose response, selectivity assay for GSK3beta inhibitor project, biochemical, microfluidic mobility shift, dry powder, set 2 (AID 623979); format: functional
Prothrombin = Prothrombin (Bos taurus, UniProt P00735); experiment: thrombin inhibition, dose response, biochemical, fluorescence polarization, uHTS hits (AID 602369); format: functional
[3] = molecular target: 26S proteasome non-ATPase regulatory subunit 14 (Homo sapiens, UniProt O00487); experiment: inhibition of proteasome subunit RPN11 – biochemical, fluorescence polarization, uHTS hits, confirmation (AID 602368); format: functional
[4] = molecular target: 72 kDa type IV collagenase (Homo sapiens, UniProt P08253); experiment: Dose Response validation of uHTS RPN11 inhibitor hits using a MMP-2 Fluorescence assay.; format: functional
[5] = microbe, parasite or virus in culture; format: functional; details: Mycobacterium tuberculosis
Vero = experiment: cells; format: functional; details: Chlorocebus sabaeus
[6] = molecular target: T1, Glycogen synthase kinase-3 beta; experiment: Inhibition of Human GSK-3 beta Activity Measured in Biochemical System Using Microfluidics - 2063-05_Inhibitor_Dose_DryPowder_Activity_Set2. [Related pubchem assays (depositor defined):AID2709]
[7] = molecular target: T3, Glycogen synthase kinase-3 alpha (Homo sapiens, UniProt P49840); experiment: Inhibition of Human GSK-3 alpha Activity Measured in Biochemical System Using Microfluidics - 2063-06_Inhibitor_Dose_DryPowder_Activity_Set2. [Related pubchem assays (depositor defined):AID2709]
[8] = molecular target: T2, Cyclin-dependent kinase 5/CDK5 activator 1; experiment: CDK5-p25 kinase inhibitors, specificity check, dose response, selectivity assay for GSK-3 alpha inhibitor project, biochemical, microfluidic mobility shift, dry powder (AID 588430)
[9] = molecular target: T4, High affinity choline transporter 1 (Homo sapiens, UniProt Q9GZV3); experiment: CHT activators, dose response, cell-based, 10-point CRC, membrane potential dye (AID 602376); format: functional
T4 sequence (Q9GZV3 whole entry): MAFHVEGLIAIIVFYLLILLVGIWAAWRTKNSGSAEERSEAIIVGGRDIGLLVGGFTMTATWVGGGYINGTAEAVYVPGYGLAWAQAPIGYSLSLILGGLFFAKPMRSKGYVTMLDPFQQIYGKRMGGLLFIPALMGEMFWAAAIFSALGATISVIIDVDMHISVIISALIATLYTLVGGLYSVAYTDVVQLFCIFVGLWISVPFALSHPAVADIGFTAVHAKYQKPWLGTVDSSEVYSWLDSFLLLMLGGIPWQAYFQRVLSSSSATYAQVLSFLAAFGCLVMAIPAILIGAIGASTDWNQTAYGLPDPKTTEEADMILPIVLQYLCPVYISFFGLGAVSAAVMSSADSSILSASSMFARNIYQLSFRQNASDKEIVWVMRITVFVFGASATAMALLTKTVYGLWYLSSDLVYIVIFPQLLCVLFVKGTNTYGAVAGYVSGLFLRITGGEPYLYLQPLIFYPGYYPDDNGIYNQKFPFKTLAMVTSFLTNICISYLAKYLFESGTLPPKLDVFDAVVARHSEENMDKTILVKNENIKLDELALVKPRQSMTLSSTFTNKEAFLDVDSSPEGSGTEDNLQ

[10] = molecular target: Vascular endothelial growth factor receptor 2 (Homo sapiens, UniProt P35968); format: functional
Aurora kinase B = Aurora kinase B (Homo sapiens, UniProt Q96GD4); format: functional
Aurora kinase A = Aurora kinase A (Homo sapiens, UniProt O14965); format: functional;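 further: value from the Navigating the Kinome kinase panel profiling, panel entry STK6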
[11] = molecular target: Dual specificity protein kinase CLK4 (Homo sapiens, UniProt Q9HAZ1); format: functional
[12] = molecular target: Dual specificity protein kinase CLK2 (Homo sapiens, UniProt P49760); format: functional
[13] = molecular target: Serine/threonine-protein kinase pim-1 (Homo sapiens, UniProt P11309); format: functional
[14] = molecular target: Melanin-concentrating hormone receptor 1 (Homo sapiens, UniProt Q99705); experiment: Late-stage fluorescence-based counterscreen for antagonists of the G-protein coupled receptor 7 (GPR7): cell-based dose response assay to identify antagonists of the melanin-concentrating hormone receptor 1 (MCHR1) Set 5.; format: functional
[15] = molecular target: T3, Glycogen synthase kinase-3 alpha; format: functional
[16] = molecular target: T1, Glycogen synthase kinase-3 beta; format: functional
Activin receptor type-1 = Activin receptor type-1 (Homo sapiens, UniProt Q04771); experiment: Navigating the Kinome. Panel member name: ACVR1; format: functional
[17] = molecular target: Receptor-type tyrosine-protein kinase FLT3 (Homo sapiens, UniProt P36888); format: functional;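 further: FLT3 was tested as one member of a kinome-wide kinase panel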
[18] = molecular target: ALK tyrosine kinase receptor (Homo sapiens, UniProt Q9UM73); format: functional;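 further: ALK tested as one member of a kinase panel screen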
[19] = molecular target: Cyclin-dependent kinase 19 (Homo sapiens, UniProt Q9BWU1); experiment: Navigating the Kinome. Panel member name: CDC2L6; format: functional
[20] = C. albicans growth with fluconazole, confirmation, fluorescence, retest (AID 2467); format: functional, cell-based
Insulin-degrading enzyme [21] = molecular target: T5, Insulin-degrading enzyme (Homo sapiens, UniProt P14735); experiment: activators of recombinant IDE enzyme, dose response, counter-screen for IDE activator project, biochemical, fluorescence polarization (AID 588681)
T5 sequence (P14735 whole entry): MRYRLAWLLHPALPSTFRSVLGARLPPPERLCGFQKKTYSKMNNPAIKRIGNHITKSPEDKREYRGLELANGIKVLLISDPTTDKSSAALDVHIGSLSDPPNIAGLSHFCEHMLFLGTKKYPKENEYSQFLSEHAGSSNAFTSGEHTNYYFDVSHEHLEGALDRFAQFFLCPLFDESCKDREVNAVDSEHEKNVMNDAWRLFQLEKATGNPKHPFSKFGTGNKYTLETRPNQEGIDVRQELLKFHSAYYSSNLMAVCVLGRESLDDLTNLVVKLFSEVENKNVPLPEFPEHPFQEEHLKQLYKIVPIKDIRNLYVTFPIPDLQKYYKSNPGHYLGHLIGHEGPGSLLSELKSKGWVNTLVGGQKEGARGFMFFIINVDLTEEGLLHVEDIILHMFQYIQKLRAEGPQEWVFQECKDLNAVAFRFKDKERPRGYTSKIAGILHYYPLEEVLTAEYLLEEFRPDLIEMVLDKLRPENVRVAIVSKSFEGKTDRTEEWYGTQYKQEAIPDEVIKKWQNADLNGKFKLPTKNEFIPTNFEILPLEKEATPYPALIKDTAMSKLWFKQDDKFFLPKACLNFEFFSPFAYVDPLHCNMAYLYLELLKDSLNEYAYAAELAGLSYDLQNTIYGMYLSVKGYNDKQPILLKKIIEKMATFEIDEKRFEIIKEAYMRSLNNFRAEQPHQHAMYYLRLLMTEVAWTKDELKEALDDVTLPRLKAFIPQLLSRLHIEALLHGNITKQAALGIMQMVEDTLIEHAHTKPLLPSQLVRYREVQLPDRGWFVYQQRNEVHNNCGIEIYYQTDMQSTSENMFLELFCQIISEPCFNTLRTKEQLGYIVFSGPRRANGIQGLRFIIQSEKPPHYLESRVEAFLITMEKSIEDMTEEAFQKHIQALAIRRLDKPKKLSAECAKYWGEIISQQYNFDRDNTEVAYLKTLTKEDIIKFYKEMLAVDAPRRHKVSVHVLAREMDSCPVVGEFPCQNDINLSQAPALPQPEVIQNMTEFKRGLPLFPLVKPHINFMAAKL

[22] = molecular target: T6, Zinc finger protein mex-5 (Caenorhabditis elegans, UniProt Q9XUB2); experiment: MEX-5/TCR-2 RNA interaction inhibitors, dose response, biochemical, C. elegans, fluorescence polarization (AID 1960)
T6 sequence (Q9XUB2 whole entry): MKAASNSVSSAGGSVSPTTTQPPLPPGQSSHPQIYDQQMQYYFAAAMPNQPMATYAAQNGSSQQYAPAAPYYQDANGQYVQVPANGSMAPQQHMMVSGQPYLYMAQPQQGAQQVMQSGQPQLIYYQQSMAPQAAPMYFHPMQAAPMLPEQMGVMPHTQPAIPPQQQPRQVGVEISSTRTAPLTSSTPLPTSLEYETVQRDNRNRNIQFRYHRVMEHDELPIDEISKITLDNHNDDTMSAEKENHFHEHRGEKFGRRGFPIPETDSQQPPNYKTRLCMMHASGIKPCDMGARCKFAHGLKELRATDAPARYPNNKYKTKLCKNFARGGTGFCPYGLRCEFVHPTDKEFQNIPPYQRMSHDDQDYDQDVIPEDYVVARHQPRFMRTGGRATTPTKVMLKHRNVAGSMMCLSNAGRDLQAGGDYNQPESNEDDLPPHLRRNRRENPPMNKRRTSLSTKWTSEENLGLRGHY

[23] = NIH-3T3 fibroblast cytotoxicity, dose response, cytotoxicity control, cell-based, fluorescence, Alamar Blue, secondary assay (AID 2327); format: functional;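 further: NIH-3T3 mouse fibroblasts cultured with fluconazole at 8 µg/mL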
HEK293 [24] = experiment: HEK cell cytotoxicity by LDH release, dose response, cytotoxicity control for IDE activator project, fluorescence, HEK cells (AID 588440); format: functional, cell-based; details: Homo sapiens;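 further: cytotoxicity by LDH release measuring loss of membrane integrity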
HEK293 [25] = experiment: optical interference in Abeta FP readout, dose response, artefact control for IDE activator project, biochemical, fluorescence polarization (AID 588442); format: functional, cell-based; details: Homo sapiens
[26] = molecular target: T7, RNA-binding protein pos-1 (Caenorhabditis elegans, UniProt G5EF15); experiment: inhibitors of POS-1/mex-3 RNA binding, dose response, biochemical, fluorescence polarization (AID 1964);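 further: purified POS-1 fused to maltose binding protein made in E. coli; potency of compounds blocking POS-1 binding to fluorescent RNA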
T7 sequence (G5EF15 whole entry): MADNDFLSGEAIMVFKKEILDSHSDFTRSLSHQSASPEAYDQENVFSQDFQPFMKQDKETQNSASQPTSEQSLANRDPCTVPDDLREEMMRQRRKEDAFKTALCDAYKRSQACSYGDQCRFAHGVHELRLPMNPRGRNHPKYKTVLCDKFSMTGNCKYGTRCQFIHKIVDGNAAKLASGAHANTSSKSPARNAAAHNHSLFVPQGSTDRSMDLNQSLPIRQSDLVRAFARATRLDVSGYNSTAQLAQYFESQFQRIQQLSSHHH

Insulin-degrading enzyme [27] = molecular target: T5, Insulin-degrading enzyme; experiment: activators of endogenous IDE in HEK cells, dose response, cell-based, fluorescence polarization (AID 588439); format: functional
[28] = molecular target: Protein disulfide-isomerase (Homo sapiens, UniProt P07237); experiment: PDI inhibitors, insulin aggregation turbidity, dose response, biochemical, absorbance, cherry-picked samples (AID 602350); format: functional
[29] = THP-1 cell cytotoxicity, cytotoxicity control, set 4 (AID 504911); format: functional; details: Mycobacterium tuberculosis
[30] = Vero cell cytotoxicity, dose response, cytotoxicity control for M. tuberculosis growth inhibitor project, Vero cells, purified and synthesized compounds, set 4 (AID 504854); format: functional; details: Mycobacterium tuberculosis

T1 sequence (P49841 whole entry): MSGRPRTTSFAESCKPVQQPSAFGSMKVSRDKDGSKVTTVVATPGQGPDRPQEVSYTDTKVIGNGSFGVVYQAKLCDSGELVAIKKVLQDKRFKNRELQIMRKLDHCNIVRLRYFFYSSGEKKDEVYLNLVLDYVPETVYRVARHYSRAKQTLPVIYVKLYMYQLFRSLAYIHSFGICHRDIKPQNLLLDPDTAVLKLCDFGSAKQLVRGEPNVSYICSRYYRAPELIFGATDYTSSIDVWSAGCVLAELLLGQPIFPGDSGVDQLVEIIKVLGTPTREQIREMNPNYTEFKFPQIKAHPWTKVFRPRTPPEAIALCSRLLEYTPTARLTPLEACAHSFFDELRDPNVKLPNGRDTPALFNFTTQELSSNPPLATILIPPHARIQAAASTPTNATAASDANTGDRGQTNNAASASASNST
T3 sequence (P49840 whole entry): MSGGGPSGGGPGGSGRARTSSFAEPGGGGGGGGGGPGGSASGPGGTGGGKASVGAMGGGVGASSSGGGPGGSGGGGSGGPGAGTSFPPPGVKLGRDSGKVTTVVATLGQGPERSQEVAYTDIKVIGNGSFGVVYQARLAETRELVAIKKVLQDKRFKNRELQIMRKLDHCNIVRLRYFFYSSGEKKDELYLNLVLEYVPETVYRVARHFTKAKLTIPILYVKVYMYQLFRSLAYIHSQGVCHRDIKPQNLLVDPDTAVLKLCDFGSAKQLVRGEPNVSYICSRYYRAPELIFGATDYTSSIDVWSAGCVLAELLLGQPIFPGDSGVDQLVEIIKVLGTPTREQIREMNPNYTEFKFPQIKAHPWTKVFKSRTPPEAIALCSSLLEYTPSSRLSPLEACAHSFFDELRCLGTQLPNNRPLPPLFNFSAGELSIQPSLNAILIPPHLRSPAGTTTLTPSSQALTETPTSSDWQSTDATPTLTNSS
T2 sequence (Q00535 whole entry): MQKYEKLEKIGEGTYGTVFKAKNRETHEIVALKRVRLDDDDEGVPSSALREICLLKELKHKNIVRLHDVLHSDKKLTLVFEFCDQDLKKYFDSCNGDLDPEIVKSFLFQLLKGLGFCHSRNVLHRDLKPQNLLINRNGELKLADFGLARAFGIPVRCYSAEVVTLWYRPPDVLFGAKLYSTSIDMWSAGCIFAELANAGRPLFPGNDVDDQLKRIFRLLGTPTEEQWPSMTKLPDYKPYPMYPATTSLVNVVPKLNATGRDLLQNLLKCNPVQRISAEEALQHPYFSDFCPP
T2 sequence (Q15078 whole entry, further chain): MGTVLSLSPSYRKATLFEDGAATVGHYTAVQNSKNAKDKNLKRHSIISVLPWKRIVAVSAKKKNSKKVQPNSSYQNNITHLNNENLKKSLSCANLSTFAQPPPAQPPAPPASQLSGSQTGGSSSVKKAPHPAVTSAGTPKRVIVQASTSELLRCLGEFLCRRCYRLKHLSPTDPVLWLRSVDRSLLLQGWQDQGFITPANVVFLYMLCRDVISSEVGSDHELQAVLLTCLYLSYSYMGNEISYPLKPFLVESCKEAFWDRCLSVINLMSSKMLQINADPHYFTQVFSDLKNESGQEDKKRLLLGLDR
Sequence of Aurora kinase B (Q96GD4 whole entry): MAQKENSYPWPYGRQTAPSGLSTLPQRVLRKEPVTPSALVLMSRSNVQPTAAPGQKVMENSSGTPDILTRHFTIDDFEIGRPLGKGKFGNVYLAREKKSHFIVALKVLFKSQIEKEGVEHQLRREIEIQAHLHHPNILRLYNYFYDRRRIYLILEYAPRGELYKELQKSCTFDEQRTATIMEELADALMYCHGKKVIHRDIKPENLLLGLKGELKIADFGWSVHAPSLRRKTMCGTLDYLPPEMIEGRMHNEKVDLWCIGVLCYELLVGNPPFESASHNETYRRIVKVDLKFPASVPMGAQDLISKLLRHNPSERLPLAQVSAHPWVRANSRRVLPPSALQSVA
Sequence of 26S proteasome non-ATPase regulatory subunit 14 (O00487 whole entry): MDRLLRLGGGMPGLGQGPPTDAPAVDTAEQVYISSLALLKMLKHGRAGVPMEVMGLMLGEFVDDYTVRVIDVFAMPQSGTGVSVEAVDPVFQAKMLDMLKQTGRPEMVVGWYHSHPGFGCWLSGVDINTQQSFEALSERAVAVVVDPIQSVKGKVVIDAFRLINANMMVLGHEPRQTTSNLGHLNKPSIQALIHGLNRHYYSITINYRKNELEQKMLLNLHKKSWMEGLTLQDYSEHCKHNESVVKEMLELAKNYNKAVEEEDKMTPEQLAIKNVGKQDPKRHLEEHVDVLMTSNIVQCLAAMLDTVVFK
Sequence of Cyclin-dependent kinase 19 (Q9BWU1 whole entry): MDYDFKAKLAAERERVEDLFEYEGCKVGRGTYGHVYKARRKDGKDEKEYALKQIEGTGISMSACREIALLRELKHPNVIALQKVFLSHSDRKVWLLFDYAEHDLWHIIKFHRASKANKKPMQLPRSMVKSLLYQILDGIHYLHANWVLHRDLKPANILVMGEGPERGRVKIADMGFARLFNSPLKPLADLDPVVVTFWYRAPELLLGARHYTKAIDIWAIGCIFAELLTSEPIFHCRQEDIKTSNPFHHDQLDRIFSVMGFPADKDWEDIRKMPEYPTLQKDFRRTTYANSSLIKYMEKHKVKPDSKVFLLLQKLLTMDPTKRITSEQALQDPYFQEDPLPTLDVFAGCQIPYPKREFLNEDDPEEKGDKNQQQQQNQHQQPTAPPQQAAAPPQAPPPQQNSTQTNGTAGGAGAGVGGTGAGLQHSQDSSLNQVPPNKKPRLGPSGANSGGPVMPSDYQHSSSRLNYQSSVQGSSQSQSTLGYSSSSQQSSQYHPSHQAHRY
Sequence of Dual specificity protein kinase CLK4 (Q9HAZ1 whole entry): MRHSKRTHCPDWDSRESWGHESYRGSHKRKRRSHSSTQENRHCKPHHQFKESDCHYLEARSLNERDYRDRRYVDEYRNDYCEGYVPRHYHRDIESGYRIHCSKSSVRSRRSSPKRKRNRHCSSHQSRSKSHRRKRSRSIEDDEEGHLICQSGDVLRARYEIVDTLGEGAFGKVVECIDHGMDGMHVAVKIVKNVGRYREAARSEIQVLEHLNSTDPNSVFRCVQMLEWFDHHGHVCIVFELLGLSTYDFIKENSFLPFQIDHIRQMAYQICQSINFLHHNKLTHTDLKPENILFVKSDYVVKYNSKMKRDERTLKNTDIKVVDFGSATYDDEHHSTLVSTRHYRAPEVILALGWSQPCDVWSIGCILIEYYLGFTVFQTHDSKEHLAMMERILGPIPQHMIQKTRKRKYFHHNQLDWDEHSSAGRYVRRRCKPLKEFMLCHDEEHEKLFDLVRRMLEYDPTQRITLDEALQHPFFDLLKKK
Sequence of Activin receptor type-1 (Q04771 whole entry): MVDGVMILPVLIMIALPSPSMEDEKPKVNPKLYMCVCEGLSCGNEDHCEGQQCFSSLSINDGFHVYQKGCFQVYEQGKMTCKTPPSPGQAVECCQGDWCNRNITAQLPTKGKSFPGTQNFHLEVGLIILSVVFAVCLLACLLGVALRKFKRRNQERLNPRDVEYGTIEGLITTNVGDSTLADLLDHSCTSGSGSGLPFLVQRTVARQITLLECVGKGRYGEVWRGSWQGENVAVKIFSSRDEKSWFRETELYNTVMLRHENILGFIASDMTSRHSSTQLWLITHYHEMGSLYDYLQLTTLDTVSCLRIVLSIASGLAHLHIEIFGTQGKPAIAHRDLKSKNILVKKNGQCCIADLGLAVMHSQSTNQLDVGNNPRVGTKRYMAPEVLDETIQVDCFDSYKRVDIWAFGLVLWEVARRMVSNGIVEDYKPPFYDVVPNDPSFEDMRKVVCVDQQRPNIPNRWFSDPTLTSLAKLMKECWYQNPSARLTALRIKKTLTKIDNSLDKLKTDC
Sequence of Serine/threonine-protein kinase pim-1 (P11309 whole entry): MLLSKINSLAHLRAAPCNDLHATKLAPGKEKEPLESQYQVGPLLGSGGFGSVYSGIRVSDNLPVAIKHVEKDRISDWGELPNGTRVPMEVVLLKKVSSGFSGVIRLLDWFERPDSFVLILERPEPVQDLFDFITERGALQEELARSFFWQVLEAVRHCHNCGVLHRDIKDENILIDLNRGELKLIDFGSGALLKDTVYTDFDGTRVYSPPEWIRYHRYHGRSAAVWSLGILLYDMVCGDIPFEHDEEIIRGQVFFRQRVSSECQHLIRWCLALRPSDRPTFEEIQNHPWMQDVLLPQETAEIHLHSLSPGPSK
Sequence of Melanin-concentrating hormone receptor 1 (Q99705 whole entry): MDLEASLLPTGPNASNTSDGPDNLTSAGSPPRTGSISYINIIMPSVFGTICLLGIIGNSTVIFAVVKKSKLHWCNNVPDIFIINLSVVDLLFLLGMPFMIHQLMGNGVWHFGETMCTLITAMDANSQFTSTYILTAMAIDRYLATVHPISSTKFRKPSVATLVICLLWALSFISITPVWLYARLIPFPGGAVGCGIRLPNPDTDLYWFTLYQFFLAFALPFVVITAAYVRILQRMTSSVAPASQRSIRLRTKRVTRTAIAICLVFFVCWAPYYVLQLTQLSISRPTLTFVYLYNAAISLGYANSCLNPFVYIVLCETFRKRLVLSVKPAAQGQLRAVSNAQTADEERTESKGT
Sequence of Dual specificity protein kinase CLK2 (P49760 whole entry): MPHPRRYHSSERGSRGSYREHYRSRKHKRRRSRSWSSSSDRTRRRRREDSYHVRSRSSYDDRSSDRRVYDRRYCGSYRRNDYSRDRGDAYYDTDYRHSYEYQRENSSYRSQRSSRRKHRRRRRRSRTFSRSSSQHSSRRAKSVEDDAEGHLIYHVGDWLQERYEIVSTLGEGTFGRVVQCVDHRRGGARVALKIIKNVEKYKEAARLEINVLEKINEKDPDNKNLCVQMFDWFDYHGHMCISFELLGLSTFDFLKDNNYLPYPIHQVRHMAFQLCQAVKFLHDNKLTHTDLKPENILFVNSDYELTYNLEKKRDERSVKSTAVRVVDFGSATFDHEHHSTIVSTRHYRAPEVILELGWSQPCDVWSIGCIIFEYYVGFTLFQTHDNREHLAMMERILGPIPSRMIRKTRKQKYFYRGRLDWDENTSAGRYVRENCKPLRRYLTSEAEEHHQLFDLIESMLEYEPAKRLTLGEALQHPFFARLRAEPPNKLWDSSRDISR

O=C(Cc1cccc2ccccc12)Nc1cn(C2CCC2)cn1
AC50 [1]: 8.41 µM (active)
AC50 [2]: 137 nM (active)

COc1cc(/C=C/C(O)=C2\C(=O)NC(=O)N(CCc3ccccc3)C2=O)ccc1O
IC50 (Prothrombin): 40.6 µM (active)
IC50 [3]: 29.2 µM (active)
IC50 [4]: > 100 µM (inactive)
CC50 [5]: 15.9 µM (active)
CC50 (Vero): 17.7 µM (active)

O=C1c2ccccc2-c2onc3ccc(NCCCN4CCNC4)c1c23
AC50 [6]: 161 nM (active)
AC50 [7]: 520 nM (active)
AC50 [8]: 76.2 µM (active)

COc1cc2c(cc1OC)C(c1cccs1)N(C(S)=NC(C)C)CC2 (stereo not given)
EC50 [9]: 17.5 µM (active)

O=C1NC(=S)NC(=O)C1=Cc1ccc(-c2ccc(C(=O)O)c(O)c2)o1
Ki [10]: > 5.01 µM (inactive)
Ki (Aurora kinase B): 39.8 nM (active)
Ki (Aurora kinase A): 126 nM (active)

COCCn1c(C)c(C)sc1=NC(=O)c1cc(SC)ccc1Cl
Ki [11]: 5.01 µM (active)
Ki [12]: 6.31 µM (active)
Ki [13]: 6.31 µM (active)

COc1ccc(Oc2c(Cl)cnn(C3=Nc4cc(Cl)ccc4Oc4ncccc43)c2=O)cc1
IC50 [14]: 8.51 µM (active)

CCc1cnn2c(NCc3ccc[n+]([O-])c3)cc(N3CCCCC3CCO)nc12 (stereo not given)
Ki [15]: 1.58 µM (active)
Ki [16]: 1.26 µM (active)
Ki (Activin receptor type-1): > 3.98 µM (inactive)
Ki [17]: > 3.16 µM (inactive)

Cn1cc(Nc2ncc(Br)c(Nc3cccc(C(N)=O)c3)n2)cn1
Ki [18]: 3.16 µM (active)
Ki [19]: 6.31 µM (active)

O=C1c2cccc3c(O)ccc(c23)C(=O)N1Cc1ccccc1
EC50 [20]: 82 nM (active)
EC50 (Insulin-degrading enzyme [21]): > 54.7 µM (inactive)
EC50 [22]: 183 nM (inconclusive)
EC50 [23]: 85.7 µM (active)
IC50 (HEK293 [24]): > 89.2 µM (inactive)
EC50 (HEK293 [25]): > 54.7 µM (inactive)
EC50 [26]: 2.62 µM (active)
EC50 (Insulin-degrading enzyme [27]): > 54.7 µM (inactive)

CC[C@]12c3[nH]c4cc(-c5ccco5)ccc4c3CCN1C(=O)[C@@H](CC(=O)NCc1ccc(OC)c(OC)c1)C[C@@H]2C(=O)N1CCN(C(=O)c2ccco2)CC1
AC50 [28]: 4.25 µM (active)

CC(C)NC(=O)CSc1nc2ccccc2c(=O)[nH]1
CC50 [29]: > 100 µM (active)
CC50 [30]: > 100 µM (active)
